We go through ten compounds from publication PMC10102067, “Synthesis of vancomycin fluorescent probes that retain antimicrobial activity, identify Gram-positive bacteria, and detect Gram-negative outer membrane damage” (Communications Biology, 2023).

Converted amounts (≈) assume the structure as drawn. Where a name gives a salt, the structure may show the parent alone. Read-outs that look alike come from different tables or passages of the source. Bridge positions count the residues as written; N and C are the ends. Square brackets hold non-standard residues; d marks the D form. Peptide text beside a SMILES is read from it. * marks the point of attachment. Decanoyl(3R-OH) = CCCCCCC[C@@H](O)CC(=O)*; dDab = NCC[C@@H](N)C(=O)O; Dab = NCC[C@H](N)C(=O)O

In one test the test system is E. coli. As to the kind of experiment: microbe, parasite or virus in culture. How it is done:
Bacteria were obtained from the American Type Culture Collection (ATCC; Manassas, VA, USA), Merck Sharp & Dohme (Kenilworth, NJ), the Coli Genetic Stock Center (CGSC, Yale University), Network on Antimicrobial Resistance in Staphylococcus aureus (NARSA) via BEI Resources (www.beiresources.org) and independent academic clinical isolate and mutant collections. All species used in this study were described fully in Table S4. Bacteria were cultured in Cation-Adjusted Mueller-Hinton Broth (CAMHB, Bacto Laboratories, Cat No. 212322) or Muller Hinton Broth (MHB, Bacto Laboratories, Cat No. 211443) at 37 °C overnight. A sample of each culture was then diluted 50-fold in MHB and incubated at 37 °C for 1.5–3 h. The stock solutions of vancomycin probes 7, 8 and 9 were prepared at 1.28 mg/mL in sterile water. The compounds were serially diluted two-fold across the wells, with concentrations ranging from 0.06 µg/mL to 128 µg/mL, plated in duplicate. […]

Another test relates to E. coli ATCC 25922. Put plainly: Permeability test in Gram-negative bacteria, flow cytometry method (Fig. 4i). The test is classed as cell-based. The note with it: compound 0.125–128 µg/mL 1 h 37 °C, then probe 9 32 µg/mL 30 min. How it is done: E. coli ATCC 25922 cells were cultured in LB at 37 °C overnight. […] The resultant mid-log phase cultures were harvested and washed once with HBSS, then resuspended in HBSS to an OD600 of 1. Then 1 mL of the cultures were transferred to Eppendorf tubes and centrifuged. Solutions (1 mL) of antibiotics (0.125–128 µg /mL) and isopropanol (100 %) was added, then left for 1 h at 37 °C with shaking (180 rpm). […] Bacteria were washed again with HBSS, the pellets were suspended in 200 µL of HBSS, and 100 µL of the suspended bacteria solution was added into black 96-well plates (Black flat bottom, 96-Well plate, Corning, Cat No. CLS3915-100EA) for Tecan plate reader measurement (Tecan Plate Reader, Infinite M1000 Pro). Excitation: 475 nm; Emission: 550 nm. On the other hand, suspended bacteria solution was then diluted 1000-fold in HBSS for flow cytometer measurement (Cytoflex S, Beckman Coulter, Inc. 250 S. Kraemer Blvd. Brea, CA 92821 U.S.A.). The detector used here was FITC (Excitation 488 nm; Emission 525/40 nm). 40000 events were collected. The data was analysed using Kaluza Analysis 2.1 software (Beckman Coulter, Inc. 250 S. Kraemer Blvd. Brea, CA 92821 U.S.A.) and statistical software GraphPad Prism 8 (San Diego, CA, U.S.A.).
Background: In flow cytometry, cells or beads pass a laser one at a time.

[1] abbreviates: Escherichia coli, ATCC25922, read-out: E. coli MIC, Table S2: ATCC 25922 FDA Control, CaMHB, non-treated polystyrene plate.
Where [2] appears, read: Escherichia coli, ATCC25922, read-out: E. coli MIC, Table S2: ATCC 25922 FDA Control, MHB, non-treated polystyrene 96-well plate.
Setting [3] is: Escherichia coli, read-out: E. coli MIC, Table S2: CGSC7139 DC2 mutant, CaMHB, non-treated polystyrene plate.
[4] abbreviates: Escherichia coli, read-out: E. coli MIC, Table S2: CGSC7139 DC2 mutant, MHB, non-treated polystyrene plate.
[5] abbreviates: Escherichia coli, read-out: E. coli MIC, Table S2: MB4827 K12, CaMHB, non-treated polystyrene plate.
Setting [6] is: Escherichia coli, read-out: E. coli MIC, Table S2: MB4827 K12, MHB, non-treated polystyrene plate.
Where [7] appears, read: Escherichia coli, read-out: E. coli MIC, Table S2: MB4902 LpxC mutant, CaMHB, non-treated polystyrene plate.
The mark [8] stands for this setting: Escherichia coli, read-out: E. coli MIC, Table S2: MB4902 LpxC mutant, MHB, non-treated polystyrene plate.
Setting [9] is: Table S2: ATCC 25922 FDA Control, CaMHB, non-treated polystyrene plate.
The mark [10] stands for this setting: Table S2: ATCC 25922 FDA Control, MHB, non-treated polystyrene 96-well plate.
[11] abbreviates: Table S2: CGSC7139 DC2 mutant, CaMHB, non-treated polystyrene plate.
Setting [12] is: Table S2: CGSC7139 DC2 mutant, MHB, non-treated polystyrene plate.
Setting [13] is: Table S2: MB4827 K12, CaMHB, non-treated polystyrene plate.
Setting [14] is: Table S2: MB4827 K12, MHB, non-treated polystyrene plate.
Where [15] appears, read: Table S2: MB4902 LpxC mutant, CaMHB, non-treated polystyrene plate.
Where [16] appears, read: Table S2: MB4902 LpxC mutant, MHB, non-treated polystyrene plate.

As to `CNC(C)C1CCC(N)C(OC2C(N)CC(N)C(OC3OCC(C)(O)C(NC)C3O)C2O)O1` (centres unmarked) [Gentamicin sulfate], the MIC is 1 µg/mL in the test with E. coli (setting [1]); 2 µg/mL with E. coli (setting [2]); 0.5 to 2 µg/mL in the test on E. coli (setting [3]); 0.5 to 4 µg/mL in the test on E. coli (setting [4]); 0.5 to 1 µg/mL in the test with E. coli (setting [5]); 0.5 to 1 µg/mL in the test with E. coli (setting [6]). Further, the MIC with E. coli (setting [7]) and in the test with E. coli (setting [8]) was 0.25 to 0.5 µg/mL each time.
With `CC[C@H]1OC(=O)[C@H](C)[C@@H](O[C@H]2C[C@@](C)(OC)[C@@H](O)[C@H](C)O2)[C@H](C)[C@@H](O[C@@H]2O[C@H](C)C[C@H](N(C)C)[C@H]2O)[C@](C)(O)C[C@@H](C)C(=O)[C@H](C)[C@@H](O)[C@]1(C)O` [Erythromycin], the MIC was 64 µg/mL (≈ 87.2 µM) in the test on E. coli (setting [1]); 64 µg/mL (≈ 87.2 µM) with E. coli (setting [2]); over 64 µg/mL in the test on E. coli (setting [3]); over 64 µg/mL in the test on E. coli (setting [4]); over 64 µg/mL with E. coli (setting [5]); 64 µg/mL (≈ 87.2 µM) with E. coli (setting [6]). Moreover, the MIC in the test on E. coli (setting [7]) and in the test with E. coli (setting [8]) was 8 µg/mL (≈ 10.9 µM) in each case.
For the compound `CC[C@H](C)[C@H](NC(=O)[C@@H](NC(=O)[C@H](CO)NC(=O)[C@H](C)NC(=O)[C@@H](NC(=O)[C@H](CCCCN)NC(=O)[C@H](CCCCN)NC(=O)[C@@H](NC(=O)[C@@H](NC(=O)[C@H](CC(=O)O)NC(=O)[C@H](Cc1ccccc1)NC(=O)[C@H](CC(C)C)NC(=O)CN)C(C)C)[C@@H](C)CC)C(C)C)C(C)C)C(=O)NCC(=O)NCC(=O)N[C@@H](CC(C)C)C(N)=O` [Citropin 1.1] (H-GLFDVIKKVASVIGGL-NH2; N-terminus and C-terminus assumed), the “outer membrane damage: fluorescence of probe 9 labelling after treatment (in words)” value (“outer membrane damage: fluorescence” for short) in the test with E. coli ATCC 25922 is recorded as “substantially higher concentrations before membrane damage was seen”.
On to Colistin sulfate, for which the “E. coli MIC” value in the test with E. coli (setting [9]) is 0.25 µg/mL; in the test with E. coli (setting [10]), 0.25 µg/mL; with E. coli (setting [11]) it was 0.125 to 0.25 µg/mL; with E. coli (setting [12]), 0.125 µg/mL; with E. coli (setting [13]), 0.06 to 0.25 µg/mL; in the test on E. coli (setting [14]) it was 0.06 to 0.125 µg/mL. For the same compound, the “E. coli MIC” value with E. coli (setting [15]) and with E. coli (setting [16]) was 0.03 to 0.06 µg/mL each time.
For `CC[C@H](C)[C@@H]1NC(=O)CNC(=O)[C@H](CCCNC(=N)N)NC(=O)[C@H](Cc2ccc(O)cc2)NC(=O)[C@@H]2CSSC[C@H](NC1=O)C(=O)N[C@@H](Cc1ccc(O)cc1)C(=O)N[C@@H](CCCNC(=N)N)C(=O)N[C@@H](CCCNC(=N)N)C(=O)N[C@H](C(=O)N[C@@H](CCCNC(=N)N)C(N)=O)CSSC[C@H](NC(=O)[C@H](Cc1c[nH]c3ccccc13)NC(=O)[C@@H](N)CCCCN)C(=O)N[C@@H](Cc1ccccc1)C(=O)N[C@@H](CCCNC(=N)N)C(=O)N[C@@H](C(C)C)C(=O)N2` [Tachyplesin-1] (H-KWCFRVCYRGICYRRCR-NH2; disulfide 3-16, 7-12 (inferred); N-terminus and C-terminus assumed), the “outer membrane damage: fluorescence” value in the test on E. coli ATCC 25922 is recorded as “increased fluorescence at the lowest concentrations”.
Turning to `CC(C)[C@@H]1NC(=O)CNC(=O)[C@H](CC(N)=O)NC(=O)[C@H](CCCNC(=N)N)NC(=O)[C@H](Cc2ccc(O)cc2)NC(=O)[C@H](C(C)C)NC(=O)[C@@H]2CSSC[C@H](NC(=O)[C@H](C(C)C)NC(=O)[C@H](CCCNC(=N)N)NC1=O)C(=O)N[C@@H](Cc1ccc(O)cc1)C(=O)N[C@@H](CCCNC(=N)N)C(=O)N[C@@H](CCCNC(=N)N)C(=O)N[C@H](C(=O)N[C@@H](CC(N)=O)C(=O)O)CSSC[C@H](NC(=O)[C@H](Cc1ccccc1)NC(=O)CN)C(=O)N[C@@H](Cc1c[nH]c3ccccc13)C(=O)N[C@@H](Cc1ccc(O)cc1)C(=O)N[C@@H](C(C)C)C(=O)N2` [Arenicin-3] (H-GFCWYVCVYRNGVRVCYRRCN-OH; disulfide 3-20, 7-16; N-terminus and C-terminus assumed), the “outer membrane damage: fluorescence” value in the test with E. coli ATCC 25922 is recorded as “increased fluorescence at the lowest concentrations”. Also, the “E. coli MIC” value with E. coli (setting [11]) was 2 to 8 µg/mL; in the test on E. coli (setting [12]), 2 to 8 µg/mL; with E. coli (setting [15]) it was 1 µg/mL; with E. coli (setting [16]) it was 1 to 2 µg/mL.
Regarding `COc1cc(Cc2cnc(N)nc2N)cc(OC)c1OC` [Trimethoprim], the “E. coli MIC” value in the test with E. coli lay within 1 to 2 µg/mL. The MIC was 1 µg/mL (≈ 3.44 µM) in the test on E. coli (Escherichia coli, ATCC25922, read-out: E. coli MIC); 0.5 µg/mL (≈ 1.72 µM) in the test on E. coli (Escherichia coli, read-out: E. coli MIC); 0.25 to 0.5 µg/mL (≈ 0.861 to 1.72 µM) in the test on E. coli (setting [3]); 0.25 to 0.5 µg/mL (≈ 0.861 to 1.72 µM) in the test with E. coli (setting [4]); 0.5 to 1 µg/mL (≈ 1.72 to 3.44 µM) in the test on E. coli (setting [7]); 0.5 to 1 µg/mL (≈ 1.72 to 3.44 µM) in the test on E. coli (setting [8]).
Regarding Polymyxin B, the “E. coli MIC” value in the test with E. coli (ATCC 29522, NBS 96-well plates (Table 2)) is given as 0.06 µg/mL; in the test on E. coli (CFT073, NBS plates (Table 2)) it was at most 0.03 µg/mL; in the test with E. coli (CFT073 WaaL mutant, NBS plates (Table 2)), at most 0.03 µg/mL; in the test with E. coli (DC2 mutant, NBS plates (Table 2)), at most 0.03 µg/mL; in the test with E. coli (LpxC mutant, NBS plates (Table 2)) it was at most 0.03 µg/mL; in the test on E. coli (MB4827 K12, NBS plates (Table 2)), at most 0.03 µg/mL. Besides, the “E. coli MIC” value in the test on E. coli (setting [9]) was 0.125 µg/mL; with E. coli (setting [10]), 0.125 µg/mL; with E. coli (setting [13]), 0.125 µg/mL; with E. coli (setting [14]), 0.125 µg/mL; in the test on E. coli (setting [15]) it was 0.03 to 0.06 µg/mL; in the test with E. coli (setting [16]), 0.03 to 0.06 µg/mL.
As to `CCCCCCC[C@@H](O)CC(=O)N[C@H](CCN)C(=O)N[C@H]1CCNC(=O)[C@H](CC(C)C)NC(=O)[C@H](CCN)NC(=O)[C@H](CCN)NC(=O)[C@H](CC(C)C)NC(=O)[C@@H](Cc2ccccc2)NC(=O)[C@H](CCN)NC1=O` [Octapeptin C4] ({Decanoyl(3R-OH)}-[dDab][Dab][Dab][dF]L[Dab][Dab]L; lactam 2-C (inferred); N-terminus assumed), in the test with E. coli ATCC 25922, the “outer membrane damage: fluorescence” value is recorded as “substantially higher concentrations before membrane damage was seen”. Moreover, the “E. coli MIC” value with E. coli (setting [11]) was 2 to 8 µg/mL; in the test with E. coli (setting [12]), 1 to 2 µg/mL; in the test on E. coli (setting [15]), 2 µg/mL; in the test with E. coli (setting [16]) it was 2 µg/mL.
Compound `CN[C@H](CC(C)C)C(=O)N[C@H]1C(=O)N[C@@H](CC(N)=O)C(=O)N[C@H]2C(=O)N[C@H]3C(=O)N[C@H](C(=O)N[C@H](C(=O)O)c4cc(O)cc(O)c4-c4cc3ccc4O)[C@H](O)c3ccc(c(Cl)c3)Oc3cc2cc(c3O[C@@H]2O[C@H](CO)[C@@H](O)[C@H](O)[C@H]2O[C@H]2C[C@](C)(N)[C@H](O)[C@H](C)O2)Oc2ccc(cc2Cl)[C@H]1O` [1 Vancomycin, Vancomycin] yielded an MIC against E. coli (3 h) of over 64 µg/mL.
